What was measured:
[1] = tested on: Salmonella typhimurium (TA98, TA100, TA1535 and TA1537); test: Bacterial mutation test with and without S-9; assay type: cell-based; conditions: up to 5000 μg/plate, absence and presence of S-9
Protocol: (§1) These conditions included treatments at concentrations up to 5000 μg/plate (the maximum recommended concentration according to current regulatory guidelines), in the absence and in the presence of a rat liver metabolic activation system (S-9).

[2] = tested on: Escherichia coli (WP2 uvrA pKM101); test: Bacterial mutation test with and without S-9; assay type: cell-based; conditions: up to 5000 μg/plate, absence and presence of S-9
Protocol: as §1

[3] = tested on: patients with postpartum depression (PPD); test: Open-label clinical trial of inhaled 5-MeO-DMT (single-day IDR) in postpartum depression; one patient so far, received 6 mg then 12 mg
Protocol: The single-arm, open-label clinical trial will involve 15 adult female patients with clinically diagnosed postpartum depression (PPD).
The second dose (12 mg) will only be administered if: • a. […] The 6 mg dose was safe and well-tolerated according to the investigator, • c. Any psychoactive effects (PsE) of the prior dose have subsided, and • d. Pre-dose vital parameters and forced expiratory volume in one second (FEV1) are in normal range, or if outside of the normal range, are not clinically significant according to the investigator. • 3. Similarly, a third dose (18 mg) will only be administered if: • a. […] The 12 mg dose was safe and well-tolerated according to the investigator, and • c. Any PsE of the prior dose have subsided, and • d. Pre-dose vital parameters and forced expiratory volume in one second (FEV1) are in normal range, or if outside of the normal range, are not clinically significant according to the investigator.
The patients will be assessed for a peak psychedelic experience (based on a patient-scored visual analogue scale, the PE scale), sedation, and other endpoints after dosing.
Follow-up visits are planned for Day 1, and Day 7 after the dosing day.
The following criteria must be met by all patients considered for clinical trial participation: • 1. Is female and in the age range between 18 and 45 years (inclusive) at screening. • 2. Has a body mass index (BMI) in the range of 18.5 and 35 kg/m^2 (inclusive) at screening. • 3. Meets the trial criteria for PPD as assessed by a trial psychiatrist or registered psychologist: • a. Diagnosis of Major Depressive Disorder without psychotic features, confirmed by the Mini-International Neuropsychiatric Interview (MINI), with peri-partum onset that began no earlier than gestation and no later than the first 4 weeks postpartum. • b. Has a Montgomery-Åsberg Depression Rating Scale (MADRS) total score of equal to or greater than 28 at screening and pre-dose on Day 0. • 6. […] Patients must have a negative pregnancy test at screening and on the pre-test day (Day-1). • 5. Is willing to delay start of other antidepressant or anxiety medication until after the end of the trial at Day 7 and agrees to keep any psychotherapy unchanged during the trial.

[4] = Pharmacokinetics of 5-MeO-DMT and bufotenine after a single inhaled dose; assay type: in vivo, human
Protocol: Blood samples were obtained at 1; 2; 4; 7; 10; 15; 20; 30; 45 min and 1; 1.5; 2; 3; 4 hours after administration.
PK parameters were generated by algebraic analysis of the concentration versus time plots for each individual. The analysis was carried out using the software Phoenix WinNonlin 6.3.

With `COc1ccc2[nH]cc(CCN(C)C)c2c1` [5-MeO-DMT] the Mutation induction [1] was “did not induce mutation”, the Mutation induction [2] was “did not induce mutation” and the “ECG (3 hours), safety laboratory analyses (7 days), CADSS (3 hours, 1 day, 7 days)” value ([3]; n=1) was “unremarkable”. For the same compound, the “MADRS response (>=50% improvement) and remission (total <=10) criteria” value ([3]; n=1) was “fulfilled standard criteria for MADRS response”, the “Onset of clinical response” value ([3]; n=1) was at most 2 h and the “Time to clinical remission” value ([3]; n=1) was at most 2 h. The “Tolerability of inhalation procedure” value ([3]; n=1) was “well tolerated with no inhalation-related adverse events”, the “Total MADRS improvement” value ([3]; n=1, 2 hr) was 24 and the “Total MADRS score” value ([3]; n=1, 2 hr, baseline 29) was 5. For the same compound, the “Reported adverse events (cramping left abdominal pain, headache)” value ([3]; n=1, Day 0) was “mild, short-lasting and resolved spontaneously”, the “BPRS Tension improvement” value ([3]; n=1, Day 1) was 5 and the “Total MADRS improvement” value ([3]; n=1, Day 1) was 29. For the same compound, the “Total MADRS score” value ([3]; n=1, Day 1, baseline 29) was 0, the “Total MADRS improvement” value ([3]; n=1, Day 7) was 28 and the “BIMF functional domain Adjustment score” value ([3]; n=1, Day 7, Day 0 5, maximum 12) was 6. For the same compound, the “BIMF functional domain Self-Care score” value ([3]; n=1, Day 7, Day 0 9, maximum 18) was 13, the “BIMF functional domain Infant Care score” value ([3]; n=1, Day 7, Day 0 12, maximum 12) was 12 and the “BIMF functional domain Mother-Child Interaction score” value ([3]; n=1, Day 7, Day 0 15, maximum 18) was 17. The “BIMF functional domain Social Support score” value ([3]; n=1, Day 7, Day 0 17, maximum 18) was 18, the “BIMF functional domain Management score” value ([3]; n=1, Day 7, Day 0 28, maximum 36) was 33 and the “BIMF functional domain Psychological Well-being score” value ([3]; n=1, Day 7, Day 0 44, maximum 60) was 53. For the same compound, the “BIMF item 19 (As time goes on, I am getting better at taking care of my baby) score” value ([3]; n=1, Day 7, Day 0 score 0) was 1, the “BIMF item 16 (I worry about how other people judge me (as a mother)) score” value ([3]; n=1, Day 7, Day 0 score 3) was 5 and the “BIMF item 13 (I am taking good care of my physical needs) score” value ([3]; n=1, Day 7, Day 0 score 4) was 5. For the same compound, the “BIMF item 5 (I am able to relax and enjoy time with my baby) score” value ([3]; n=1, Day 7, Day 0 score 5) was 6, the “BIMF item 9 (I am getting enough encouragement from other people) score” value ([3]; n=1, Day 7, Day 0 score 5) was 6 and the “BIMF item 10 (I trust my own feelings (instincts) when it comes to taking care of my baby) score” value ([3]; n=1, Day 7, Day 0 score 5) was 6. For the same compound, the “BIMF item 11 (I take a little time each week to do something for myself) score” value ([3]; n=1, Day 7, Day 0 score 5) was 6, the “BIMF item 17 (I am able to take care of my baby and my other responsibilities) score” value ([3]; n=1, Day 7, Day 0 score 5) was 5 and the “BIMF item 3 (I am comfortable with the way I've chosen to feed my baby) score” value ([3]; n=1, Day 7, Day 0 score 6) was 6. The “BIMF item 6 (There are people in my life that I can trust to care for my baby when I need a break) score” value ([3]; n=1, Day 7, Day 0 score 6) was 6, the “BIMF item 8 (I am getting enough adult interaction) score” value ([3]; n=1, Day 7, Day 0 score 6) was 6 and the “BIMF item 12 (I am taking good care of my baby's physical needs) score” value ([3]; n=1, Day 7, Day 0 score 6) was 6. The “BIMF item 14 (I make good decisions about my baby's health and well being) score” value ([3]; n=1, Day 7, Day 0 score 6) was 6, the “BIMF item 20 (I am satisfied with the job I am doing as a new mother) score” value ([3]; n=1, Day 7, Day 0 score 6) was 5 and the “Total MADRS score” value ([3]; n=1, Day 7, baseline 29) was 1. The “BIMF total score improvement” value ([3]; n=1, Day 7, from 92) was 14%, the “BIMF TOTAL Δ” value ([3]; n=1, Day 7 vs Day 0) was 13 and the “BIMF functional domain Adjustment % Improvement” value ([3]; n=1, Day 7 vs Day 0) was 20.00%. For the same compound, the “BIMF functional domain Adjustment Δ” value ([3]; n=1, Day 7 vs Day 0) was 1, the “BIMF functional domain Infant Care % Improvement” value ([3]; n=1, Day 7 vs Day 0) was 0.00% and the “BIMF functional domain Infant Care Δ” value ([3]; n=1, Day 7 vs Day 0) was 0. For the same compound, the “BIMF functional domain Management % Improvement” value ([3]; n=1, Day 7 vs Day 0) was 18%, the “BIMF functional domain Management Δ” value ([3]; n=1, Day 7 vs Day 0) was 5 and the “BIMF functional domain Mother-Child Interaction Δ” value ([3]; n=1, Day 7 vs Day 0) was 2. The “BIMF functional domain Psychological Well-being Δ” value ([3]; n=1, Day 7 vs Day 0) was 9, the “BIMF functional domain Self-Care % Improvement” value ([3]; n=1, Day 7 vs Day 0) was 44% and the “BIMF functional domain Self-Care Δ” value ([3]; n=1, Day 7 vs Day 0) was 4. The “BIMF functional domain Social Support Δ” value ([3]; n=1, Day 7 vs Day 0) was 1, the “BIMF item 1 (I am a good mother) Δ” value ([3]; n=1, Day 7 vs Day 0) was 0 and the “BIMF item 2 (I feel rested) Δ” value ([3]; n=1, Day 7 vs Day 0) was 2. The “BIMF item 3 (I am comfortable with the way I've chosen to feed my baby) Δ” value ([3]; n=1, Day 7 vs Day 0) was 0, the “BIMF item 4 (My baby and I understand each other) Δ” value ([3]; n=1, Day 7 vs Day 0) was 0 and the “BIMF item 5 (I am able to relax and enjoy time with my baby) Δ” value ([3]; n=1, Day 7 vs Day 0) was 1. The “BIMF item 6 (There are people in my life that I can trust to care for my baby when I need a break) Δ” value ([3]; n=1, Day 7 vs Day 0) was 0, the “BIMF item 8 (I am getting enough adult interaction) Δ” value ([3]; n=1, Day 7 vs Day 0) was 0 and the “BIMF item 9 (I am getting enough encouragement from other people) Δ” value ([3]; n=1, Day 7 vs Day 0) was 1. For the same compound, the “BIMF item 10 (I trust my own feelings (instincts) when it comes to taking care of my baby) Δ” value ([3]; n=1, Day 7 vs Day 0) was 1, the “BIMF item 11 (I take a little time each week to do something for myself) Δ” value ([3]; n=1, Day 7 vs Day 0) was 1 and the “BIMF item 12 (I am taking good care of my baby's physical needs) Δ” value ([3]; n=1, Day 7 vs Day 0) was 0. For the same compound, the “BIMF item 13 (I am taking good care of my physical needs) Δ” value ([3]; n=1, Day 7 vs Day 0) was 1, the “BIMF item 14 (I make good decisions about my baby's health and well being) Δ” value ([3]; n=1, Day 7 vs Day 0) was 0 and the “BIMF item 15 (My baby and I are getting into a routine) Δ” value ([3]; n=1, Day 7 vs Day 0) was 1. For the same compound, the “BIMF item 16 (I worry about how other people judge me (as a mother)) Δ” value ([3]; n=1, Day 7 vs Day 0) was 2, the “BIMF item 17 (I am able to take care of my baby and my other responsibilities) Δ” value ([3]; n=1, Day 7 vs Day 0) was 0 and the “BIMF item 18 (Anxiety or worry often interferes with my mothering ability) Δ” value ([3]; n=1, Day 7 vs Day 0) was 3. The “BIMF item 19 (As time goes on, I am getting better at taking care of my baby) Δ” value ([3]; n=1, Day 7 vs Day 0) was 1, the “BIMF item 20 (I am satisfied with the job I am doing as a new mother) Δ” value ([3]; n=1, Day 7 vs Day 0) was −1 and the “BPRS Tension improvement” value ([3]; n=1, Discharge) was 5. The Vital parameters ([3]; n=1, shortly after administration) was “temporary, clinically non-relevant increase in heart rate and blood pressure”, the Detectability in plasma ([4]; after 3 hours, 6, 12, 18 mg) was “no longer detectable” and the “Accumulation upon repeated administration” value ([4]; within a time frame of 1 to 4 hours) was “No accumulation”.

— patent US20250241894A1, “TREATMENT OF MENTAL DISORDERS” (GH RESEARCH IRELAND LIMITED, priority 2022, published 2025)
